Common to all, as to assay type: cell-based
Data set [1] deals with cancer growth, cancer invasion, cells invasion or cancer cell invasion. Nature of the data set: Inhibition of cancer growth and invasion (anti-cancer activity). The source says:
The program is based on the purification methods and biological assays including the MTT assay as described in International Application No. PCT/US05/31900, filed Sep. 7, 2005, U.S. Ser. No. 11/289,142, filed Nov. 28, 2005, and U.S. Ser. No. 11/131,551, filed May 17, 2005, and PCT/US2008/002086, 1188-ALA-PCT, filed Feb. 15, 2008, Ser. No. 12/344,682, 1020-B1-US, filed Dec. 29, 2008, US009499577B2, filed Jun. 24, 2014. The details of Analysis of gene expression of ES2 cells after Y-treatment by Microarray, Data Analysis Methods and Western blot in PCT/US2008/002086, 1188-ALA-PCT, filed Feb. 15, 2008, and the cell invasion experiments methods in International Application PCT/US2010/0042240, filed Jul. 16, 2010.

The test system of the next data set is OVCAR3. Kind of data set: MTT assay, ovary (OVCAR3). Here is the method: (§1) Cells. HTB-9 (bladder), HeLa-S3 (cervix), DU145 (prostate), H460 (lung), MCF-7 (breast), K562 (leukemia), HCT116 (colon), HepG2 (liver), U2OS (bone), T98G (brain), SK-MEL-5 (Skin) and OVCAR 3, ES2 (ovary), Pancreas (Capan), Mouth (KB), Kidney (A498).
MTT Assay. The procedure for MTT assay followed the method described by Carmichael et al. (1987) with modifications. The cells were seeded into a 96-well plate at for 24 hours before drug-treatment. The cells were then exposed to the drugs for 48, 72, or 96 hours. After the drug-treatment, MTT (0.5 mg/mL) was added to cultures and incubated for an hour. The formazan (product of the reduction of tetrazolium by viable cells) formed and was dissolved with DMSO and the O.D. at 490 nm, and was measured by an ELISA reader. The MTT level of the cells before drug-treatment was also measured (T0). The % cell-growth (% G) is calculated as: % G=(TD−T0/TC−T0)×100(1), where TC or TD represents O.D. readings of control or drug-treated cells.
When T0>TD, then the cytotoxicity (LC) expressed as % of the control is calculated as: % LC=(TD−T0/T0)×100(2).
Background: Tetrazolium dyes change colour on reduction, which living cells bring about.

For data set [2], the system named is U2OS, H460, HTB-9, ES2, HCT116, Capan, OVCAR3, DU145, SK-Mel-5, KB, A498, MCF-7, HepG2, T98G, K562, HeLa. Nature of the data set: MTT Cytotoxic Assay of reaction products and isolated compounds.
Description: The peaks, fractions and compounds are selected according to the activities of times studies and the changes of peaks. Selecting the HPLC fractions for isolation is according to the cytotoxic activity of the reaction product obtained at a specific time. The compounds having strong to weak activities are selected and isolated. Selecting the HPLC fractions for isolation may be according to the cytotoxic activity of times studies and the change of peaks. The anti cancer activities are the MTT studies of bone (U2OS), lung (H460), bladder (HTB-9), ovary (ES2), colon (HCT116), pancreas (Capan), ovary (OVCAR3), prostate (DU145), skin (SK-Mel-5), mouth (KB), kidney (A498), breast (MCF-7), liver (HepG2), brain (T98G), luekemia (K562), cervix (HeLa).
Esterification, amidation, amination, or sulfonamidation of compound (A), (B), (C), (D1), (D2), (E), (F), (G), (H1), (H2), E4A, E4A2Y, E4D, E4D1, (P1), P(2), terpene, isoprene, triterpenes, hydroxylated triterpenes, with acyl halide, wherein the halide comprise chloride, bromide, fluoride and iodide, wherein the acyl halide comprise acyl chloride, wherein acyl chloride comprise tigloyl chloride, angeloyl chloride, acetyl chloride, crotonoyl chloride, 3,3-dimethylartyloyl chloride, senecioyl chloride, cinnamoyl chloride, pentenoyl chloride, hexanoyl chloride, benzoyl chloride, ethylbutyryl chloride, propionyl chloride, 2-propenoyl chloride, isobutyryl chloride, butyryl chloride, (2E)-2-pentenoyl chloride, 4-Pentenoyl chloride, 5-hexenoyl chloride, heptanoyl chloride, octanoyl chloride, nonanoyl chloride, decanoyl chloride, Lauroyl chloride, myristoyl chloride, oleoyl chloride. The compounds vary in composition when the time or temperature of the reaction is changed. The peaks, fractions and compounds are selected according to the activities of times studies and the changes of peaks. The compounds having strong to weak activities are selected and isolated. The anti cancer activities (Cytotoxic Assay) are the MTT studies of bone (U2OS), lung (H460), bladder (HTB-9), ovary (ES2), colon (HCT116), pancreas (Capan), ovary (OVCAR3), prostate (DU145), skin (SK-Mel-5), mouth (KB), kidney (A498), breast (MCF-7), liver (HepG2), brain (T98G), luekemia (K562), cervix (HeLa). The active esterification, amidation, amination, or sulfonamidation products are purified with HPLC. The reaction product of mixtures and individual compounds are tested with MTT Cytotoxic Assay. Details of method are in Experiment 3 of the present application. A second esterification of compound can be selected from the above experiment results to produce new active compounds. A partial esterification compound is selected from the above experiments to perform a second or repeated with a third esterification with different acyl chloride in order to produce new active compounds with the experiments in the present application. The active compounds of this invention are triterpenes in form of amine, sulfonamides, amide, and urea analogs, providing extremely stable activity in solution. They prolong the activities and duration of drug in a subject.
as §1
MTT Assay. The procedure for MTT assay followed the method described by Carmichael et al. (1987) with modifications. The cells were seeded into a 96-well plate at for 24 hours before drug-treatment. The cells were then exposed to the drugs for 48, 72, or 96 hours. After the drug-treatment, MTT (0.5 mg/mL) was added to cultures and incubated for an hour. The formazan (product of the reduction of tetrazolium by viable cells) formed and was dissolved with DMSO and the O.D. at 490 nm, and was measured by an ELISA reader. The MTT level of the cells before drug-treatment was also measured (T0). […]

Take `CC1(C)CC2C3=CCC4[C@@]5(C)CC[C@H](O[C@@H]6OC(C(=O)O)[C@@H](O)C(O[C@@H]7O[C@@H](CO)C(O)[C@@H]7O)[C@@H]6O[C@@H]6OC(CO)[C@H](O)C(O)[C@@H]6O)C(C)(C)C5CC[C@@]4(C)[C@]3(C)[C@@H](O)[C@@H](O)[C@@]2(CO)[C@@H](O)[C@@H]1O` (stereo partly drawn) [AKOH-Y, reference compound]: the “inhibiting cancer growth, cancer invasion, cells invasion or cancer cell invasion” value in data set [1] was “do not show the ability”.

In the case of `CC1O[C@@H](O[C@H]2C(O)[C@@H](O)C(C)O[C@H]2O[C@H]2C(O)[C@@H](O)C(CO)O[C@H]2OC2[C@H](O)C(C(=O)O)O[C@@H](O[C@H]3CC[C@@]4(C)C(CC[C@]5(C)C4CC[C@]46O[C@H](O)[C@]7(C4CC(C)(C)[C@@H](O)[C@@H]7O)[C@H](O)C[C@]65C)C3(C)C)[C@H]2O[C@@H]2OC(CO)[C@H](O)C(O)[C@@H]2O)[C@@H](O)C(O)[C@H]1O` (stereo partly drawn) [AKOH-M10, reference compound], the “inhibiting cancer growth, cancer invasion, cells invasion or cancer cell invasion” value in data set [1] was “do not show the ability”.

As for `CC=C(C)C(=O)OCC1(C)C(O)CCC2(C)C1CCC1(C)C2CC=C2C3CC(C)(C)C(OC(=O)C(C)=CC)C(O)C3(COC(=O)C(C)=CC)C(O)CC21C` (stereo not drawn) [Tig-V], the “IC50 of ovary (OVCAR3)” value in the data set with OVCAR3 worked out at 9. Moreover, the anti-cancer activity entry in data set [1] is on record as “have anti cancer activities”.

Consider `CC=C(C)C(=O)OCC1(C)C(OC(=O)C(C)=CC)CCC2(C)C1CCC1(C)C2CC=C2C3CC(C)(C)C(OC(=O)C(C)=CC)C(O)C3(CO)C(O)CC21C` (stereo not drawn) [Tig-U], for which the “IC50 of ovary (OVCAR3)” value in the data set on OVCAR3 was 27.

Consider `CC=C(C)C(=O)OCC1(C)C(O)CCC2(C)C1CCC1(C)C2CC=C2C3CC(C)(C)C(O)C(OC(=O)C(C)=CC)C3(CO)C(O)CC21C` (stereo not drawn) [Tig-Q], for which the “IC50 of ovary (OVCAR3)” value with OVCAR3 worked out at 23. Also, the anti-cancer activity result in data set [1] is “have anti cancer activities”.

For the compound `CC=C(C)C(=O)OCC1(C)C(O)CCC2(C)C1CCC1(C)C2CC=C2C3CC(C)(C)C(O)C(O)C3(CO)C(O)CC21C` (stereo not drawn) [Tig-N], the “IC50 of ovary (OVCAR3)” value in the data set on OVCAR3 was 18. Moreover, the anti-cancer activity result in data set [1] is reported as “have anti cancer activities”.

As for `CC1(C)CC2C3=CCC4C5(C)CCC(N)C(C)(CNC(=O)c6ccccc6)C5CCC4(C)C3(C)CC(N)C2(CNC(=O)c2ccccc2)C(N)C1NC(=O)c1ccccc1` (stereo not drawn) [KK4], the Cytotoxicity activity result in data set [2] was “weak”.

Consider `CC(=O)NCC1(C)C(N)CCC2(C)C1CCC1(C)C2CC=C2C3CC(C)(C)C(N)C(N)C3(CNC(C)=O)C(N)CC21C` (stereo not drawn) [HH1], for which, in data set [2], the Cytotoxicity activity result is listed as “moderate”.

Take `CC(=O)NCC1(C)C(N)CCC2(C)C1CCC1(C)C2CC=C2C3CC(C)(C)C(NC(C)=O)C(N)C3(CN)C(N)CC21C` (stereo not drawn) [HH3]: the Cytotoxicity activity entry in data set [2] was “moderate”.

In the case of `CC(C)=CC(=O)NCC1(C)C(N)CCC2(C)C1CCC1(C)C2CC=C2C3CC(C)(C)C(NC(=O)C=C(C)C)C(N)C3(CNC(=O)C=C(C)C)C(N)CC21C` (stereo not drawn) [BB4], in data set [2], the Cytotoxicity activity result is reported as “weak”.

`CCCCCC(=O)NCC1(C)C(N)CCC2(C)C1CCC1(C)C2CC=C2C3CC(C)(C)C(N)C(N)C3(CNC(=O)CCCCC)C(N)CC21C` (stereo not drawn) [DD1]: the Cytotoxicity activity entry in data set [2] is “moderate”.

Take `CCCCCC(=O)NCC1(C)C(N)CCC2(C)C1CCC1(C)C2CC=C2C3CC(C)(C)C(NC(=O)CCCCC)C(N)C3(CNC(=O)CCCCC)C(N)CC21C` (stereo not drawn) [DD4]: the Cytotoxicity activity entry in data set [2] is “weak”.

`CCC(=O)NCC1(C)C(N)CCC2(C)C1CCC1(C)C2CC=C2C3CC(C)(C)C(NC(=O)CC)C(N)C3(CN)C(N)CC21C` (stereo not drawn) [LL3]: the Cytotoxicity activity entry in data set [2] was “moderate”.

For the compound `CC=C(C)C(=O)NCC1(C)C(N)CCC2(C)C1CCC1(C)C2CC=C2C3CC(C)(C)C(N)C(N)C3(CNC(=O)C(C)=CC)C(N)CC21C` (stereo not drawn) [AA1], the Cytotoxicity activity result in data set [2] is “moderate”.

As to `CCCC(=O)NCC1(C)C(N)CCC2(C)C1CCC1(C)C2CC=C2C3CC(C)(C)C(N)C(N)C3(CNC(=O)CCC)C(N)CC21C` (stereo not drawn) [PP1], the Cytotoxicity activity result in data set [2] is “moderate”.

On to `CCCC(=O)NCC1(C)C(O)CCC2(C)C1CCC1(C)C2CC=C2C3CC(C)(C)C(O)C(O)C3(CNC(=O)CCC)C(O)CC21C` (stereo not drawn) [PP2], for which the Cytotoxicity activity entry in data set [2] is “strong”.

In the case of `CC=C(C)C(=O)OCC1(C)C(O)CCC2(C)C1CCC1(C)C2CC=C2C3CC(C)(C)C(O)C(OC(=O)C(C)=CC)C3(COC(=O)C(C)=CC)C(O)CC21C` (stereo not drawn) [Tig-T], the “IC50 of ovary (OVCAR3)” value with OVCAR3 is recorded as 25. Further, in data set [1], the anti-cancer activity result is on record as “have anti cancer activities”.

Turning to `CC(C)C(=O)NCC1(C)C(N)CCC2(C)C1CCC1(C)C2CC=C2C3CC(C)(C)C(NC(=O)C(C)C)C(N)C3(CNC(=O)C(C)C)C(N)CC21C` (stereo not drawn) [NN4], the Cytotoxicity activity entry in data set [2] was “weak”.

As for `CC1(C)CC2C3=CCC4C5(C)CCC(O)C(C)(CNC(=O)C=Cc6ccccc6)C5CCC4(C)C3(C)CC(O)C2(CNC(=O)C=Cc2ccccc2)C(O)C1O` (stereo not drawn) [JJ2], in data set [2], the Cytotoxicity activity result is on record as “strong”.

With `C=CC(=O)NCC1(C)C(N)CCC2(C)C1CCC1(C)C2CC=C2C3CC(C)(C)C(NC(=O)C=C)C(N)C3(CNC(=O)C=C)C(N)CC21C` (stereo not drawn) [MM4], the Cytotoxicity activity result in data set [2] was “weak”.

As to `CCC(CC)C(=O)NCC1(C)C(N)CCC2(C)C1CCC1(C)C2CC=C2C3CC(C)(C)C(N)C(N)C3(CNC(=O)C(CC)CC)C(N)CC21C` (stereo not drawn) [EE1], the Cytotoxicity activity result in data set [2] is reported as “moderate”.

Take `CC=CC(=O)NCC1(C)C(O)CCC2(C)C1CCC1(C)C2CC=C2C3CC(C)(C)C(O)C(O)C3(CNC(=O)C=CC)C(O)CC21C` (stereo not drawn) [I I2]: in data set [2], the Cytotoxicity activity entry is given as “strong”.

On to `CC(C)C(=O)NCC1(C)C(N)CCC2(C)C1CCC1(C)C2CC=C2C3CC(C)(C)C(NC(=O)C(C)C)C(N)C3(CN)C(N)CC21C` (stereo not drawn) [NN3], for which the Cytotoxicity activity result in data set [2] is reported as “moderate”.

Source of the values: US20230159436A1, “APPLICATIONS OF AMIDE ANALOGS OF TRITERPENES IN CURES OF CANCER AND OTHER DISEASES” (Pacific Arrow Limited, priority 2021, published 2023).
